Source: patent publication US20230103965A1, “NOVEL ACTIVATORS OF THE LIPIDATING TRANSPORTER ATP BINDING CASSETTE PROTEIN TYPE 1 (AB-CA1) AND THERAPEUTIC USES THEREOF” (RAMOT AT TEL-AVIV UNIVERSITY LTD., priority 2020, published 2023)

Experiments:
ABCA1 [1] = biological target: T1, ABCA1 (Homo sapiens, UniProt O95477); assay: ABCA1 dependency of cholesterol efflux in BHK cells with inducible ABCA1; assay type: cell-based; conditions: for ABCA1 dependency of the effect on cholesterol efflux: BHK cells, presence vs absence of ABCA1
T1 construct: expressed in transfected cells; host or cells: BHK (baby hamster kidney) cells, ABCA1 induced with mifepristone
Description: (§1) Mife=Mifepristone which induces the expression of ABCA1.
as §1
T1 sequence (O95477 whole entry, the tested form may be a part): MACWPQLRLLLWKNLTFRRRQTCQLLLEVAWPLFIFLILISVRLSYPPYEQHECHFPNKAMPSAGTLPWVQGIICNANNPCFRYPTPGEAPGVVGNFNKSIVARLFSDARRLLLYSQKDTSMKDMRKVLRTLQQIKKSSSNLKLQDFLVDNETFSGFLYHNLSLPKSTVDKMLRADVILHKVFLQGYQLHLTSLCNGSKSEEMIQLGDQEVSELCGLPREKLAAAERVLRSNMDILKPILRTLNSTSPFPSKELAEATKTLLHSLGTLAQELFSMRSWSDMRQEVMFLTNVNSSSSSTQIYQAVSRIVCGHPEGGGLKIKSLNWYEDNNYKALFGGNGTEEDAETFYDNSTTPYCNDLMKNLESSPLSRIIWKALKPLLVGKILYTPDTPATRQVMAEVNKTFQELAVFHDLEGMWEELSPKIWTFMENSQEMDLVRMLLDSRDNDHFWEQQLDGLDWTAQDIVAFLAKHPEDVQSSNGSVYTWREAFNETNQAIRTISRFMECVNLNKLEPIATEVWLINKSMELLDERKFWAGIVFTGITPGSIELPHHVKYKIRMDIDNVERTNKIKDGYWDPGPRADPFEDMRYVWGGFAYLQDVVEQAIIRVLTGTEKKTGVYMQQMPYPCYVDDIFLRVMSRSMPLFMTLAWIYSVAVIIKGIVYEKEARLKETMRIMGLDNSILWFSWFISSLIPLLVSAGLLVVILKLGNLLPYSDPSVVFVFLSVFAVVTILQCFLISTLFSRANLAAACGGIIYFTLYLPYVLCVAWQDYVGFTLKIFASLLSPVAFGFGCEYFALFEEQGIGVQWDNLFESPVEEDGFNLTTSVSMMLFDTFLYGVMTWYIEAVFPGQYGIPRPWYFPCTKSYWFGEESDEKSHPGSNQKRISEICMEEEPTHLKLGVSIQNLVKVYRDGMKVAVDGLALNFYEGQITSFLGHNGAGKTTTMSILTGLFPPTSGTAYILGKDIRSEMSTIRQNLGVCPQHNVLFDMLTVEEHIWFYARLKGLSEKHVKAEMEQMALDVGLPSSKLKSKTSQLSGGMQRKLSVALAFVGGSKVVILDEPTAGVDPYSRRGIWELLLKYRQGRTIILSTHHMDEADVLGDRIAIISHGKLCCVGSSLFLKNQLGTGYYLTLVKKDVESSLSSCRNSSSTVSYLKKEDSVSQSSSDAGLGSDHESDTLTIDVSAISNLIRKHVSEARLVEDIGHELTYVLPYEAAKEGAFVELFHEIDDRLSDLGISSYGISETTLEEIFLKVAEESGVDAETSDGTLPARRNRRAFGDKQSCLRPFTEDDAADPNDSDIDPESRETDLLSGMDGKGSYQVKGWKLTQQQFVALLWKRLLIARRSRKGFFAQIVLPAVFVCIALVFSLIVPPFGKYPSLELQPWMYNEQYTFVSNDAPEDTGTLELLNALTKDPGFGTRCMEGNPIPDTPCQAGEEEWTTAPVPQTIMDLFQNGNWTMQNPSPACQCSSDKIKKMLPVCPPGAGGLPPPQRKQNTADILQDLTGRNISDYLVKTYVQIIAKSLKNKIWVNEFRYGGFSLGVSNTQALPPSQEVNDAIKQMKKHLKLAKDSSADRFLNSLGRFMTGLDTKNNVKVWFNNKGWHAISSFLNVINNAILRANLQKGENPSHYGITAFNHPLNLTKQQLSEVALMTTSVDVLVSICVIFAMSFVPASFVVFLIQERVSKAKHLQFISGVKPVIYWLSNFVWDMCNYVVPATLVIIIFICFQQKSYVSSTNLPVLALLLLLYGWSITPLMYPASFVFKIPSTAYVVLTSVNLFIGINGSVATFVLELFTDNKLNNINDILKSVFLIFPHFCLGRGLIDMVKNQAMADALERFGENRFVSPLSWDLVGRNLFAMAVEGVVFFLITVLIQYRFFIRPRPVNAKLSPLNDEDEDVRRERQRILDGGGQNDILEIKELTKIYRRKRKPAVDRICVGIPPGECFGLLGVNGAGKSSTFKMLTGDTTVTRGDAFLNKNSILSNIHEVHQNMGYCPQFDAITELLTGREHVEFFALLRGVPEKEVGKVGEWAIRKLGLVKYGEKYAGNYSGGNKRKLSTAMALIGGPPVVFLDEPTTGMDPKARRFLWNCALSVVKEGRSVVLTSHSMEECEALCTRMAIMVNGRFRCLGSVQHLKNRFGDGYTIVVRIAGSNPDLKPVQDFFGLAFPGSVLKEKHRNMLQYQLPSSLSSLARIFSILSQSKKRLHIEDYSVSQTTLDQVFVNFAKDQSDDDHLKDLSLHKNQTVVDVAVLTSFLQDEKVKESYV
(iii) Assessment of the ABCA1 dependency of the effects of the hits on cholesterol efflux. These experiments investigated the extent to which ABCA1 is indeed the target of the hits. This was performed utilizing BHK (baby hamster kidney) cells with inducible expression of ABCA1 followed by determination of the effects for the presence and absence of ABCA1 on the translocation of cholesterol to apoE4.

[2] = system: apoE4 astrocytic cell line; assay: Cellular viability / cytotoxicity of the hits; assay type: cell-based, Rodent; conditions: 50 μM
Description: FIG. 10: Effects of test compounds (HTS hits) on cellular viability. Experiments were performed on apoE4 astrocytic cell line in the presence of 50 μM of the indicated compounds. Viability was measured microscopically and by measurements of total cellular protein. (ii) Measurements of cytotoxicity of the hits.

ABCA1 [3] = biological target: T2, ABCA1 (Homo sapiens, UniProt O95477); assay: Target recognition: binding to ABCA1 (summary of labelled and label free MST)
T2 construct: The proteins used in these experiments were Extra-Cellular Domain 1 (ECD1) of ABCA1 and Extra-Cellular Domain 2 (ECD2); purchased Biomatick
T2 sequence (O95477 43-639 limits assumed): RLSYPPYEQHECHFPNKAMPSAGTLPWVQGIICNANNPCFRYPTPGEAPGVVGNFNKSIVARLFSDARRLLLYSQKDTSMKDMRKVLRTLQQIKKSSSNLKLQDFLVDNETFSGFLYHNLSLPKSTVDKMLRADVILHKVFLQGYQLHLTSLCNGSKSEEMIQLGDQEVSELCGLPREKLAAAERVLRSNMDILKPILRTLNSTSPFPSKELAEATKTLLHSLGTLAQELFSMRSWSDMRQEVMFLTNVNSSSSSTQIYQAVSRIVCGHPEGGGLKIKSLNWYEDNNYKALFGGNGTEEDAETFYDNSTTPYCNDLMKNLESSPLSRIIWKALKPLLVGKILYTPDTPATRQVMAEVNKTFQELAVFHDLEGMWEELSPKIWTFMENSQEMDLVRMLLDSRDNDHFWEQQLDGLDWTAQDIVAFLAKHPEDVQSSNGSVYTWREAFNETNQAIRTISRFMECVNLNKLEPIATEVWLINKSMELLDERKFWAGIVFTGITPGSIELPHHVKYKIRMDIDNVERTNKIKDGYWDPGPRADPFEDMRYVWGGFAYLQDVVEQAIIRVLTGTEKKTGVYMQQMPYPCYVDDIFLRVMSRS
Description: Microscale thermophoresis (MST) measurements. MST measurements of the binding of the HTS hits to the extracellular domain (ECD) of ABCA1 were performed by two complimentary methods utilizing either fluorescently labeled proteins or the endogenous fluorescence of unlabeled proteins. This was pursued as follows:
The experiments were performed with the purified extracellual domains 1 (ECD1) and 2 (ECD2) of ABCA1 [18]. Two complementary MST tests were performed, in which either the proteins were labeled with a fluorescence moiety or the endogenous fluorescence of the unlabeled proteins was monitored).
A. HTS Screening and Target Recognition • 1.

Human Astrocytes = assay: Cholesterol efflux (apoE4 lipidation) assay, BODIPY-cholesterol translocation to apoE4; assay type: cell-based; conditions: for EC50: Astrocyte, Human astrocytes, efflux to apoE4
Description: Cholesterol efflux assay in HTS. CCF-STTG1 cells were plated in 384-well plates containing 50 μL/well RPMI supplemented with 10% FBS at a density of 5×10^3 cells/well, using a Multidrop 384 Reagent Dispenser (Thermo Scientific), and incubated for 48 hr. Cells were washed twice with 50 μl PBS using an EL406 Microplate Washer Dispenser (BioTek, Winooski, Vt., USA) before being labeled with 50 μl of 10 μM BODIPY-cholesterol+100 μM cyclodextrin (CD) in RPMI 1640 medium containing 0.2% BSA. The labeling medium was added using in a Washer Dispenser II (GNF, San Diego, Calif., USA). Plates were transferred automatically to a Liconic incubator (Mauren Principality of Liechtenstein) and incubated for 24 h. Subsequently, cells were washed twice as described above to remove external cholesterol. Next, 50 μl of the efflux medium was added, which contained recombinant apoE4 at a concentration of 40 μg/ml in transparent RPMI 1640 (no phenol red), again using Washer Dispenser II (GNF, San Diego, Calif., USA). The positive control contained the ABCA1 activator, CS-6253 (120 μg/ml) in addition to the acceptor (apoE4). After 7 hr of efflux, the medium was transferred to new plates, using the Bravo Automated Liquid Handling system (Agilent, Santa Clara, Calif., USA). Fluorescence polarization (FP) and fluorescence intensity (FI) of the medium were measured in a PheraStar FS plate reader (BMG Labtech, Ortenberg, Germany).
The apoE4 lipidation Assay is based on measurements of the ability of astrocytes to translocate fluorescently labelled cholesterol to recombinant non lipidated apoE4 and on the extent to which this effect is enhanced by treatment with each of the screened compounds (FIG. 2, 3). This assay is an adaptation of previous studies of cholesterol translocation from labelled astrocytes to external acceptors such as apoE4 [16], except that in order to differentiate between gene expression related effects and direct biochemical effects of the hits on ABCA1, the incubations of the HTS with the cells was limited to 8 hours. The extent to which the cells secret the labelled cholesterol and transfer it to non-lipidated apoE4 was determined by regular fluorescence as well as by fluorescence polarization microscopy. The latter technique in this context is used due to its sensitivity to particle size which decreases the background signal by differentiating between free and particle bound released cholesterol.
The assay was characterized biochemically and it was shown that translocation of labelled cholesterol to apoE4 is time and concentration dependent (FIG. 4) and was increased by the positive control ABCA1 agonistic 26mer peptide CS-6253 [4] (FIG. 5). The assay was used for high throughput screening (HTS) and selection of positive hits. 50,000 compounds from commercially available libraries were screened utilizing the double criteria of a signal greater than 3 standard deviations from the mean of all of the screened compounds, and being similar or greater than the apoE4 lipidation driven by the ABCA1 agonistic peptide CS-6253. Additional criteria included the tier drug ability value with tier 1 being best and tier 3 being least suitable, as well as a hydrophobicity value of 2<log P<5 value. This yielded 14 hits, designated Compounds #1-#14 (FIG. 6).

SMILES | ABCA1 dependency BHK Cells (ABCA1 [1]; Table 2) | ABCA1 dependency BHK Cells (ABCA1 [1]; Table 4) | Cholesterol efflux from ABCA1 expressing BHK cells (ABCA1 [1]; BHK cells expressing ABCA1) | Viability Rodent Astrocytes ([2]; Table 2) | Viability Rodent Astrocytes ([2]; Table 4) | MST binding to ECD1 (ABCA1 [3]) | EC50 (Human Astrocytes; Table 2) [µM] | EC50 (Human Astrocytes; Table 4) [µM] | Stimulation of cholesterol efflux from human astrocytes to apoE4 (Human Astrocytes; test compounds 50 μM) | ABCA1 dependency of the effect on cholesterol efflux (ABCA1 [1]) | Lipidation of apoE4 in the absence of ABCA1 (ABCA1 [1]; BHK cells not expressing ABCA1)
O=[N+]([O-])c1ccc(N2CCCCC2)c2nonc12 [Hit #7] | No activity | No activity | had no effect | Normal | Normal | scored positively | 8.56 | 8.56 | activates cholesterol efflux | – | –
CC(C)(C)C(=O)COC(=O)c1ccccc1SCc1cc(-c2ccco2)on1 [Hit #4] | – | – | – | Normal | Normal | bind saturably to ECD1 | 28.3 | 28.3 | – | depend on the presence of ABCA1 | –
Cc1nn(CC(=O)c2ccc(Br)s2)c(C)c1[N+](=O)[O-] [Hit #3] | – | – | – | Normal | Normal | bind saturably to ECD1 | > 44.8 | > 44.8 | – | depend on the presence of ABCA1 | did not stimulate any lipidation of apoE4
CSC(SC)=C1CC/C(=C/c2ccc(N(C)C)cc2)C1=O [Hit #14] | – | – | – | Normal | Normal | – | > 44.8 | > 44.8 | – | – | –
C[C@]12CC[C@@H](O)CC1CCC1C2CC[C@](C)(C(=O)O)C1/C=C1/Nc2ccccc2C1=O (stereo partly drawn) [Hit #12] | – | – | – | Normal | Normal | – | > 44.8 | > 44.8 | – | – | –
